In patent US6518397B1, “Pharmaceuticals for modulating hormone responsiveness” (priority 1995, dated 2003):

Test system: calreticulin mRNA in MC3T3 cells
Test: Calreticulin mRNA levels in MC3T3 cells
Assay type: cell-based, mouse
Protocol: Calreticulin expression levels in these cell types are determined at the outset by Western blot analysis. In addition to utilizing these stable expression vectors, we construct inducible calreticulin expression sense- and antisense-cDNA expression vectors driven by strong metal inducible promoters (Filmus et al., 1992). The inducible vectors allow us to turn calreticulin expression on or off at will. In the MC3T3 cells, 1,25,dihydroxyvitamin D3 has a proliferative effect on these cells at subconfluency, but when added to confluent, mineralizing cultures, it enhances the mineralization process. The transfected cells are analyzed for the level of calreticulin expression by Western blot analysis as described by us previously as well as by Northern blot analysis for mRNA levels. The effect of up or down regulation of calreticulin is determined in terms of the above mentioned responses to 1,25 dihydroxyvitamin D3. In addition, the effect on the expression of vitamin D responsive genes, such as c-fos and integrin b3 subunit (Xu et al., 1993) is determined by Northern blot and Western blot analysis. […] The luciferase activity in mock transfected versus calreticulin sense- and antisense-cDNA transfected cells (stable and inducible) is then be determined as described by us previously (see Example 6). […]

Compound: C=C1/C(=C\C=C2/CCC[C@]3(C)[C@@H]([C@H](C)CCCC(C)(C)O)CC[C@@H]23)C[C@@H](O)C[C@@H]1O [1,25,dihydroxyvitamin D3]
- Calreticulin mRNA levels: upregulates calreticulin mRNA levels
